pIC50: −log10 of the molar value.
Assays:
Format in all cases: cell-based, human
A549 cells = experiment: Cell viability resazurin assay, A549 cells; conditions: for viability of A549 cells relative to control: ± SD
Description: (§1) The A549 (human non-small cell lung cancer) cell line was obtained from the American Type Culture Collection (ATCC) and cultured in Dulbecco's Modified Eagle Medium (DMEM) with 10% fetal bovine serum (FBS), 2 mM L-Glutamine, 25 mM HEPES and penicillin/streptomycin solution (100 U/ml and 100 µg/ml, respectively). The HL-60 (human promyelocytic leukemia) cell line was also obtained from the American Type Culture Collection (ATCC) and cultured in Iscove’s Modified Dulbecco's Medium (IMDM) with 15% fetal bovine serum (FBS), 2 mM L-Glutamine, 25 mM HEPES and penicillin/streptomycin solution (100 U/ml and 100 µg/ml, respectively). Both cell lines were cultured in flasks at 37 °C in 5% CO2 and sub-cultured every 2–3 days to maintain exponential growth.
(§2) Firstly, resazurin salt powder was dissolved in sterile 1 × PBS. Cells were then seeded on the 96-well plates in the count of 1 × 10^4 in the case of HL-60 cells and of 5 × 10^4 for PBM cells and of 5 × 10^3 for A549 cells per well. A549 cells were seeded 24 h prior to treatment with the complexes to allow cell adherence to 96-well plate. Iron(II) complexes were added to wells to obtain final concentrations of 0.5, 1, 2.5, 5, 10, 25, 50, 100 and 250 μM. Subsequently, plates were incubated at 37 °C in 5% CO2 for 2 h and 24 h. After that 10 μl of resazurin salt was added to each well and plates again were incubated in 37 °C in 5% CO2 for 2 h. Finally, fluorescence was measured with microplate reader Synergy HT (Bio-Tek Instruments, USA) using an excitation wavelength of 530/25 and an emission wavelength of 590/35 nm. The effects of iron(II) complexes were calculated as the percentage of control fluorescence. IC50 (half maximal inhibitory concentration) values were calculated using a website algorithm (https://www.aatbio.com/tools/ic50-calculator). All assays were performed in octuplicate.

PBM cells = experiment: Cell viability resazurin assay, PBM cells; conditions: for viability of PBM cells relative to control: ± SD
Source text: Peripheral blood mononuclear (PBM) cells were isolated from a leukocyte-buffy coat collected from the blood of healthy, non-smoking donors at the Blood Bank in Lodz, Poland. The study protocol received approval from the Committee for Research on Human Subjects of the University of Lodz (17/KBBN-UŁ/III/2019). The initial step of isolation process involved mixing buffy coats with PBS in a 1:1 ratio. Subsequently, the mixture was centrifuged using a density gradient of Lymphosep (Cytogen, Zgierz, Poland) at 2200 RPM for 20 min, employing the lowest values for acceleration and deceleration. PBM cells were collected and washed three times by centrifugation with 1 × PBS. Following isolation, the cells were suspended in RPMI 1640 medium.
as §2

HL-60 cells = experiment: Cell viability resazurin assay, HL-60 cells; conditions: for viability of HL-60 cells relative to control: ± SD
Description: as §1, §2

In the case of `O=C1C=CC(=O)[N-]1.[C-]#[O+].[Fe+2].c1cc[cH-]c1.c1ccc(P(c2ccccc2)c2ccccc2)cc1` [2a, CpFe(CO)(PPh3)(η^1-N-maleimidato)], the “viability of A549 cells relative to control” value (A549 cells; 2 h incubation, 0.5 µM) was 84.75 ± 11.62%, the “viability of A549 cells relative to control” value (A549 cells; 2 h incubation, 1 µM) was 71.98 ± 10.47% and the “viability of A549 cells relative to control” value (A549 cells; 2 h incubation, 2.5 µM) was 67.99 ± 8.45%. For the same compound, the “viability of A549 cells relative to control” value (A549 cells; 2 h incubation, 5 µM) was 63.83 ± 8.57%, the “viability of A549 cells relative to control” value (A549 cells; 2 h incubation, 10 µM) was 64.49 ± 7.71% and the “viability of A549 cells relative to control” value (A549 cells; 2 h incubation, 25 µM) was 64.05 ± 10.66%. The “viability of A549 cells relative to control” value (A549 cells; 2 h incubation, 50 µM) was 71.32 ± 8.08%, the “viability of A549 cells relative to control” value (A549 cells; 2 h incubation, 100 µM) was 68.25 ± 7.97% and the “viability of A549 cells relative to control” value (A549 cells; 2 h incubation, 250 µM) was 57.40 ± 11.79%. The pIC50 (A549 cells; 24 h incubation) was under 3.60, the “cytotoxicity against A549 cells, in words” value (A549 cells; 24 h incubation) was “did not show cytotoxicity” and the “viability of A549 cells relative to control” value (A549 cells; 24 h incubation, 0.5 µM) was 73.24 ± 14.30%. For the same compound, the “viability of A549 cells relative to control” value (A549 cells; 24 h incubation, 1 µM) was 63.60 ± 12.84%, the “viability of A549 cells relative to control” value (A549 cells; 24 h incubation, 2.5 µM) was 68.69 ± 13.05% and the “viability of A549 cells relative to control” value (A549 cells; 24 h incubation, 5 µM) was 65.32 ± 9.49%. For the same compound, the “viability of A549 cells relative to control” value (A549 cells; 24 h incubation, 10 µM) was 114.65 ± 23.41%, the “viability of A549 cells relative to control” value (A549 cells; 24 h incubation, 25 µM) was 117.99 ± 19.59% and the “viability of A549 cells relative to control” value (A549 cells; 24 h incubation, 50 µM) was 105.46 ± 17.32%. For the same compound, the “viability of A549 cells relative to control” value (A549 cells; 24 h incubation, 100 µM) was 120.77 ± 9.93%, the “viability of A549 cells relative to control” value (A549 cells; 24 h incubation, 250 µM) was 90.11 ± 9.87% and the “A549 cell viability, increase with increasing concentrations to” value (A549 cells; 24 h incubation, concentration not given) was 120%. The “viability of PBM cells relative to control” value (PBM cells; 2 h incubation, 0.5 µM) was 98.55 ± 3.27%, the “viability of PBM cells relative to control” value (PBM cells; 2 h incubation, 1 µM) was 98.65 ± 4.06% and the “viability of PBM cells relative to control” value (PBM cells; 2 h incubation, 2.5 µM) was 98.07 ± 3.18%. For the same compound, the “viability of PBM cells relative to control” value (PBM cells; 2 h incubation, 5 µM) was 98.94 ± 2.53%, the “viability of PBM cells relative to control” value (PBM cells; 2 h incubation, 10 µM) was 101.13 ± 3.14% and the “viability of PBM cells relative to control” value (PBM cells; 2 h incubation, 25 µM) was 102.46 ± 3.1%. For the same compound, the “viability of PBM cells relative to control” value (PBM cells; 2 h incubation, 50 µM) was 102.7 ± 2.19%, the “viability of PBM cells relative to control” value (PBM cells; 2 h incubation, 100 µM) was 104.68 ± 1.6% and the “viability of PBM cells relative to control” value (PBM cells; 2 h incubation, 250 µM) was 104.85 ± 1.37%. The pIC50 (PBM cells; 24 h incubation) was 4.21, the “viability of PBM cells relative to control” value (PBM cells; 24 h incubation, 0.5 µM) was 101.47 ± 3.95% and the “viability of PBM cells relative to control” value (PBM cells; 24 h incubation, 1 µM) was 98.54 ± 1.78%. For the same compound, the “viability of PBM cells relative to control” value (PBM cells; 24 h incubation, 2.5 µM) was 101.97 ± 3.08%, the “viability of PBM cells relative to control” value (PBM cells; 24 h incubation, 5 µM) was 102.32 ± 1.76% and the “viability of PBM cells relative to control” value (PBM cells; 24 h incubation, 10 µM) was 88.22 ± 1.4%. For the same compound, the “viability of PBM cells relative to control” value (PBM cells; 24 h incubation, 25 µM) was 64.32 ± 0.17%, the “viability of PBM cells relative to control” value (PBM cells; 24 h incubation, 50 µM) was 55.37 ± 0.71% and the “viability of PBM cells relative to control” value (PBM cells; 24 h incubation, 100 µM) was 38.14 ± 0.33%. The “viability of PBM cells relative to control” value (PBM cells; 24 h incubation, 250 µM) was 32.79 ± 1.16%, the “viability of HL-60 cells relative to control” value (HL-60 cells; 2 h incubation, 0.5 µM) was 104.08 ± 2.11% and the “viability of HL-60 cells relative to control” value (HL-60 cells; 2 h incubation, 1 µM) was 103.34 ± 3.15%. For the same compound, the “viability of HL-60 cells relative to control” value (HL-60 cells; 2 h incubation, 2.5 µM) was 103.43 ± 2.81%, the “viability of HL-60 cells relative to control” value (HL-60 cells; 2 h incubation, 5 µM) was 108.69 ± 1.98% and the “viability of HL-60 cells relative to control” value (HL-60 cells; 2 h incubation, 10 µM) was 115.82 ± 2.26%. The “viability of HL-60 cells relative to control” value (HL-60 cells; 2 h incubation, 25 µM) was 120.78 ± 3.7%, the “viability of HL-60 cells relative to control” value (HL-60 cells; 2 h incubation, 50 µM) was 118.68 ± 5.5% and the “viability of HL-60 cells relative to control” value (HL-60 cells; 2 h incubation, 100 µM) was 116.98 ± 3.65%. For the same compound, the “viability of HL-60 cells relative to control” value (HL-60 cells; 2 h incubation, 250 µM) was 113.31 ± 3.08%, the pIC50 (HL-60 cells; 24 h incubation) was 4.83 and the “viability of HL-60 cells relative to control” value (HL-60 cells; 24 h incubation, 0.5 µM) was 103.09 ± 2.54%. For the same compound, the “viability of HL-60 cells relative to control” value (HL-60 cells; 24 h incubation, 1 µM) was 104.21 ± 1.11%, the “viability of HL-60 cells relative to control” value (HL-60 cells; 24 h incubation, 2.5 µM) was 100.69 ± 4.9% and the “viability of HL-60 cells relative to control” value (HL-60 cells; 24 h incubation, 5 µM) was 79.99 ± 2.5%. The “viability of HL-60 cells relative to control” value (HL-60 cells; 24 h incubation, 10 µM) was 52.57 ± 0.94%, the “viability of HL-60 cells relative to control” value (HL-60 cells; 24 h incubation, 25 µM) was 15.3 ± 1.21% and the “viability of HL-60 cells relative to control” value (HL-60 cells; 24 h incubation, 50 µM) was 10.1 ± 0.23%. The “viability of HL-60 cells relative to control” value (HL-60 cells; 24 h incubation, 100 µM) was 10.31 ± 0.23% and the “viability of HL-60 cells relative to control” value (HL-60 cells; 24 h incubation, 250 µM) was 8.4 ± 0.12%.
